ChEMBL document CHEMBL4265936, “Pyrazolo[4,3-b]pyrimido[4,5-e][1,4]diazepine derivatives as new multi-targeted inhibitors of Aurora A/B and KDR” (Eur J Med Chem, 2018)

Legend:
[1] = biological target: Vascular endothelial growth factor receptor 2 (Homo sapiens, UniProt P35968); assay: biochemical; format: cell-based, Sf21
Description: Inhibition of recombinant human N-terminal His6-tagged KDR (790 to end residues) expressed in baculovirus infected Sf21 insect cells after 60 mins by ELISA

Aurora kinase A = biological target: T1, Aurora kinase A (Homo sapiens, UniProt O14965); assay: Inhibition of Aurora A (unknown origin) using STK S2 as substrate after 40 mins by HTRF assay
T1 sequence (O14965 whole entry): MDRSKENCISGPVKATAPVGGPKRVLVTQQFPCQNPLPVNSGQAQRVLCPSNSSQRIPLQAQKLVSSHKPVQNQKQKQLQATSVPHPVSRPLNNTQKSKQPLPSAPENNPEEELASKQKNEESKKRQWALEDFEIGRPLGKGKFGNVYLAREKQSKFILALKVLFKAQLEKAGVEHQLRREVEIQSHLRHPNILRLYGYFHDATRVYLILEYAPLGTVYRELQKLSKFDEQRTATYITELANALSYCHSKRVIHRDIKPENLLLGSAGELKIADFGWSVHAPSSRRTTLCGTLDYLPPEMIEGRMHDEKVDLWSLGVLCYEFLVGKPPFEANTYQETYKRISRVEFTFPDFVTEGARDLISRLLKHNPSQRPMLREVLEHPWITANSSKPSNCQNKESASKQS

Aurora kinase B = Aurora kinase B (Homo sapiens, UniProt Q96GD4); assay: Inhibition of Aurora B (unknown origin) using STK S2 as substrate after 30 mins by HTRF assay
Mus musculus [2] = assay: Toxicity in nude mouse xenografted with human SNU5 cells assessed as mortality at 30 mg/kg, po qd for 21 days; format: organism-based; details: in vivo, 504 h
Mus musculus [3] = assay: Toxicity in nude mouse xenografted with human SNU5 cells assessed as body weight at 30 mg/kg, po qd for 21 days (reference value: 19.6 g); format: organism-based; details: in vivo, 504 h
SNU-5 = assay: Antitumor activity against human SNU5 cells xenografted in nude mouse assessed as delay in tumor tumor growth at 30 mg/kg, po qd for 21 days relative to control; format: functional
[4] = biological target: Platelet-derived growth factor receptor beta (Homo sapiens) (UniProt P09619); assay: Inhibition of recombinant human PDGFRbeta at 1000 nM after 60 mins by ELISA relative to control
[5] = biological target: Proto-oncogene tyrosine-protein kinase receptor Ret (Homo sapiens) (UniProt P07949); assay: Inhibition of recombinant human RET at 1000 nM after 60 mins by ELISA relative to control
Sequence of Proto-oncogene tyrosine-protein kinase receptor Ret (Homo sapiens) (P07949 whole entry): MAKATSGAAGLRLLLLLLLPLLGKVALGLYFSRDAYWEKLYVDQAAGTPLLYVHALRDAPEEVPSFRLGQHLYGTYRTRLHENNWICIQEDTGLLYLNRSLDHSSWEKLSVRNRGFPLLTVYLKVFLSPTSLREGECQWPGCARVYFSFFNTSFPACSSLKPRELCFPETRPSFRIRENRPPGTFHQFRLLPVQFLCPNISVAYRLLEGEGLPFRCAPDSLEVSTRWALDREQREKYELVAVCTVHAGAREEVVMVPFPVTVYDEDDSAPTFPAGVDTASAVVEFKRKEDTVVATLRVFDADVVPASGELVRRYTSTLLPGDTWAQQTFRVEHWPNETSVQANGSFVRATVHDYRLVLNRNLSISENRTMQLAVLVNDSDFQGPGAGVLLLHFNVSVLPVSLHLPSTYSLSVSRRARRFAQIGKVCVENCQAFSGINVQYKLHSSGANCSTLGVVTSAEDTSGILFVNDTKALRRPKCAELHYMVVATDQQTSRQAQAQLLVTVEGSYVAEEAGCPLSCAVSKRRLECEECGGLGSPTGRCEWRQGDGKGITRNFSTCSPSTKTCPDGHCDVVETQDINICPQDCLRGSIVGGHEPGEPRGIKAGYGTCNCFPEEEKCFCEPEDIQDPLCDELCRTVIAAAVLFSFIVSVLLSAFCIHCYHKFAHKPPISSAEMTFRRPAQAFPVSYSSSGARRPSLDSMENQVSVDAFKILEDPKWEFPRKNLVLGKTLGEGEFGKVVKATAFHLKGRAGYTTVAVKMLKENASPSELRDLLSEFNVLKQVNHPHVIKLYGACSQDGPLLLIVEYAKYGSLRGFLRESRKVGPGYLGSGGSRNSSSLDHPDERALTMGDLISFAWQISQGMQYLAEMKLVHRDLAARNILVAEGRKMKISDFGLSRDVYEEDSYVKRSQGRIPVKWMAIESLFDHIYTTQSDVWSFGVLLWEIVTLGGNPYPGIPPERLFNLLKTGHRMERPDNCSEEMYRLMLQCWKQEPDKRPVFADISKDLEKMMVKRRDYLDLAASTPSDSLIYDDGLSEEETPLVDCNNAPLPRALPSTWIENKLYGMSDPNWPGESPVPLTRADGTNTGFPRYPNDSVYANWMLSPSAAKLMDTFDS

Sequence of Vascular endothelial growth factor receptor 2 (P35968 whole entry): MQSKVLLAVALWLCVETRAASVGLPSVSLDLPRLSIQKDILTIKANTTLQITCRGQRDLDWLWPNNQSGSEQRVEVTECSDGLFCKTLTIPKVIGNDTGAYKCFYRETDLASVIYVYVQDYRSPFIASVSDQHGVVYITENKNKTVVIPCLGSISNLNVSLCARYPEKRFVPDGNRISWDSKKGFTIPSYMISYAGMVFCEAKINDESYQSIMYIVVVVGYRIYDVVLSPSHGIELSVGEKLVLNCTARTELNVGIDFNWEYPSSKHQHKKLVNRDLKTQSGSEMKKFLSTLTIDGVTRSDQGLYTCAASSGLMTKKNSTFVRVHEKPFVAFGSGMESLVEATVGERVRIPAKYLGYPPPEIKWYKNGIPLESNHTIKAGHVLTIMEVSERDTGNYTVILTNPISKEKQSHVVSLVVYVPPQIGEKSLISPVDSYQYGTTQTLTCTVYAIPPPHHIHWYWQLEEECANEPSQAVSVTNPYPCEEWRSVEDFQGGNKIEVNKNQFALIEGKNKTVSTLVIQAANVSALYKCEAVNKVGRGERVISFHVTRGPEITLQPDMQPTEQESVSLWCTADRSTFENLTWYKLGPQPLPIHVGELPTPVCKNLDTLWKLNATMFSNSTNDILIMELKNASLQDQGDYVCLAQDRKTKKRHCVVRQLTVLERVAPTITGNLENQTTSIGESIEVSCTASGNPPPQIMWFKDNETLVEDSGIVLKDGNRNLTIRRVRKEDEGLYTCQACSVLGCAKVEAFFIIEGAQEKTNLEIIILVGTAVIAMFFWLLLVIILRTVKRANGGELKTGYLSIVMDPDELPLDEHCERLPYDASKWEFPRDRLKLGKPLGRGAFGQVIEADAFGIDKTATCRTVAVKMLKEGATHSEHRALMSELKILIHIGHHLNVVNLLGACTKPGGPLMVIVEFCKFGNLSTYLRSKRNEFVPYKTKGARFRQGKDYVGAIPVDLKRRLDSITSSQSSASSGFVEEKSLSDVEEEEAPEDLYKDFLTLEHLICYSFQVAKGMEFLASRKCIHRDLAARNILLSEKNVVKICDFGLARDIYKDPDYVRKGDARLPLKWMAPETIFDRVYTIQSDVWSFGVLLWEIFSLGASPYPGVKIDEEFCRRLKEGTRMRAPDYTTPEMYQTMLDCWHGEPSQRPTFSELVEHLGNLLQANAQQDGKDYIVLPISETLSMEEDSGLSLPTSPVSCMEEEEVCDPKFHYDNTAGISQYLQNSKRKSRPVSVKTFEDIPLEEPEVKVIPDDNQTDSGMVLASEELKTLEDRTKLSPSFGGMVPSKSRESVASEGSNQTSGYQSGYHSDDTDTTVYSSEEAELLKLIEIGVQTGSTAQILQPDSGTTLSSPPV
Sequence of Aurora kinase B (Q96GD4 whole entry): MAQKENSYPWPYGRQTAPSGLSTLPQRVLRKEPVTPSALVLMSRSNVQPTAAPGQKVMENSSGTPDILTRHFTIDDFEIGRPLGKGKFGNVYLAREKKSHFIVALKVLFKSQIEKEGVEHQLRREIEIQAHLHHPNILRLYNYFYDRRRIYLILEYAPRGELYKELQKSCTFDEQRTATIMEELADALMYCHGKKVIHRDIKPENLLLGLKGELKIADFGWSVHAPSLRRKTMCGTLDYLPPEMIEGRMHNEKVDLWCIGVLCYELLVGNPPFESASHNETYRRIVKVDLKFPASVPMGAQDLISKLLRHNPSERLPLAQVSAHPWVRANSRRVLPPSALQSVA
Sequence of Platelet-derived growth factor receptor beta (Homo sapiens) (P09619 whole entry): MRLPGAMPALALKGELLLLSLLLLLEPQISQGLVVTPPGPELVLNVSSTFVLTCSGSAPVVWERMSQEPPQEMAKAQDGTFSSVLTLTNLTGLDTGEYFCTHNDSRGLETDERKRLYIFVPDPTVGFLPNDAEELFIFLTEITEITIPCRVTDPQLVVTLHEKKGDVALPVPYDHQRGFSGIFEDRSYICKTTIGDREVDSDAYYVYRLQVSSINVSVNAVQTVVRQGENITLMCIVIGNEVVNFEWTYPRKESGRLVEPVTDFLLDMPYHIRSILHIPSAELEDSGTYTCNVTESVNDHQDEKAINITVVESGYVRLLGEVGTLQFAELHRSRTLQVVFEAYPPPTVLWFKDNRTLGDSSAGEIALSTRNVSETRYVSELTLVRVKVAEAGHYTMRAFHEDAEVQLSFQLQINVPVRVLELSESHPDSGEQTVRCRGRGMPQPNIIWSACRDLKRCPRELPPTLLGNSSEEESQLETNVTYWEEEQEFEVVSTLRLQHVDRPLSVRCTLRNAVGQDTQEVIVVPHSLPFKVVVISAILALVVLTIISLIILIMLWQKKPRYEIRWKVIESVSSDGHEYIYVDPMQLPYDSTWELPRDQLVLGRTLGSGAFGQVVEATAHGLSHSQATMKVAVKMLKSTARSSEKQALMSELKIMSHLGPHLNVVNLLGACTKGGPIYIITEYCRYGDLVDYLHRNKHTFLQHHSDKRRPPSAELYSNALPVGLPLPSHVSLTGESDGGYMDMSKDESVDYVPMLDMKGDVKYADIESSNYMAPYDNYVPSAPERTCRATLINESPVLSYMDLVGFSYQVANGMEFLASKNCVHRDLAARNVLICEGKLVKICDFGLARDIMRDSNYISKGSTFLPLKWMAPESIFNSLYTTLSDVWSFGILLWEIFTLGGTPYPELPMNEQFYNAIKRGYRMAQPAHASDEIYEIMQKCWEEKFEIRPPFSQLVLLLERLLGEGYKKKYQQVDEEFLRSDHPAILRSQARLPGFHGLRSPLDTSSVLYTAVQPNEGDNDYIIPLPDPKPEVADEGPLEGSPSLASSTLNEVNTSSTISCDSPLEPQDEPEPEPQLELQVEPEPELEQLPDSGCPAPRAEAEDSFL

SMILES | IC50 [1] [µM] | IC50 (Aurora kinase A) [µM] | IC50 (Aurora kinase B) [µM] | Activity (Mus musculus [2]) | Activity (Mus musculus [3]) [g] | T/C (SNU-5) [%] | inhibition [4] [%] | inhibition [5] [%]
CCN(CC)c1ncc2c(n1)Nc1n[nH]c(C)c1N=C2c1ccc(C)cc1 | 0.0083 | 0.268 | 0.322 |  |  |  |  | 
COc1ccc(C2=Nc3c(n[nH]c3C)Nc3nc(SC)ncc32)cc1 | 0.43 | 0.093 | 2.68 |  |  |  |  | 
COc1cc2nccc(Oc3ccc(NC(=O)C4(C(=O)Nc5ccc(F)cc5)CC4)cc3)c2cc1OC [CABOZANTINIB] |  |  |  | Non-Toxic | 19.9 | 8.41 |  | 
Cc1ccc(C2=Nc3c(n[nH]c3C)Nc3nc(NC(C)(C)C)ncc32)cc1 | 0.0845 | 0.357 | 1.18 |  |  |  |  | 
CSc1ncc2c(n1)Nc1n[nH]c(C)c1N=C2c1ccccc1 | 0.697 | 0.193 | 0.894 |  |  |  |  | 
CSc1ncc2c(n1)Nc1n[nH]c(C)c1N=C2c1ccc(Cl)cc1 | 0.318 | 0.183 | 1.62 |  |  |  |  | 
CSc1ncc2c(n1)Nc1n[nH]c(C)c1N=C2c1ccc(C(F)(F)F)cc1 | 0.209 | 0.423 | 0.854 |  |  |  |  | 
CSc1ncc2c(n1)Nc1n[nH]c(C)c1N=C2c1ccccc1C(F)(F)F | 0.205 | 0.128 | 0.307 |  |  |  |  | 
CSc1ncc2c(n1)Nc1n[nH]c(C)c1N=C2c1ccc(C)cc1 | 0.157 | 0.0706 | 0.0998 |  |  |  |  | 
CCN(CC)CCNC(=O)c1c(C)[nH]c(/C=C2\C(=O)Nc3ccc(F)cc32)c1C |  |  |  |  |  |  | 75.7 | 76.7
Cc1ccc(C2=Nc3c(n[nH]c3C)Nc3nc(NC(C)C)ncc32)cc1 | 0.0303 | 0.0631 | 0.0541 |  |  |  |  | 
